# Columns and labels:
# Experiment in all cases: MIC, broth-microdilution (CLSI VET01-A4)
# Type in all cases: cell-based
# [1] = system: Pasteurella multocida PM 6391 (ATCC 43137, reference strain); conditions: Pasteurella multocida PM 6391; for MIC: read-out: MIC PM 6391
# Procedure, shortened: (§1)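 Visual no-turbidity endpoint over twofold compound dilutions in microdilution trays, interpreted according to CLSI VET01-S3.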
# [2] = system: Pasteurella multocida PM 6267 (P 2225 (L386), reference strain, mouse infection strain); conditions: Pasteurella multocida PM 6267
# Procedure, shortened: as §1
# [3] = system: Mannheimia haemolytica MH 10720 (154, BRD field isolate); conditions: Mannheimia haemolytica MH 10720; for MIC: read-out: MIC MH 10720
# Procedure, shortened: as §1
# [4] = system: Pasteurella multocida PM 12080 (IV102277-0093, BRD field isolate); conditions: Pasteurella multocida PM 12080; for MIC: read-out: MIC PM 12080
# Procedure, shortened: as §1
# [5] = system: Mannheimia haemolytica MH 6374 (ATCC 33396, reference strain); conditions: Mannheimia haemolytica MH 6374; read-out: MIC MH 6374
# Procedure, shortened: as §1
# [6] = system: Mannheimia haemolytica MH 6357 (M7/2, reference strain, cattle infection strain); conditions: Mannheimia haemolytica MH 6357; read-out: MIC MH 6357
# Procedure, shortened: as §1
# [7] = system: Mannheimia haemolytica MH 12587 (1071, BRD field isolate, macrolide-resistance: erm+, E+); conditions: Mannheimia haemolytica MH 12587, macrolide-resistant
# Procedure, shortened: as §1
# [8] = system: Pasteurella multocida PM 10775 (080130003051, BRD field isolate); conditions: Pasteurella multocida PM 10775
# Procedure, shortened: as §1
# [9] = system: Mannheimia haemolytica MH 13093 (XB0472-6014.1, BRD field isolate)
# Procedure, shortened: (§2)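 MIC read by eye as lowest compound concentration without visible growth (no turbidity), interpreted per CLSI VET01-S3. Doubling-dilution broth-microdilution trays, run according to CLSI VET01-A4.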
# [10] = system: Mannheimia haemolytica MH 13065 (XB0446-6003.9, BRD field isolate)
# Procedure, shortened: as §2
SMILES,MIC PM 6391 [1],MIC PM 6267 [2],MIC MH 10720 [3],MIC PM 12080 [4],MIC [5] [µM],MIC [6] [µM],MIC MH 12587 [7] [µM],MIC PM 10775 [8],MIC [9] [µM],MIC [10] [µM],MIC [1] [µM],MIC [3] [µM],MIC [4] [µM],MIC ([2]; read-out: MIC PM 6267) [µM]
C[C@@H](O)[C@H](NC(=O)c1ccc(C#Cc2ccc(CNCc3ccccc3)cc2)cc1)C(=O)NO [Compound 2],<=0.1 μM,<=0.1 μM,<=0.1 μM,<=0.1 μM,0.2,0.2,0.8,<=0.1 μM,0.8,1,–,–,–,–
C[C@@H](O)[C@H](NC(=O)c1ccc(C#Cc2ccc(CNC3CC3)cc2)cc1)C(=O)NO [C. 103],–,<=0.1 μM,–,<=0.1 μM,0.195,0.391,0.8,<=0.1 μM,1.6,0.4,0.195,0.2,–,–
C#CCNCc1ccc(C#Cc2ccc(C(=O)NC(C(=O)NO)C(C)(C)N)cc2)s1 (racemic) [Compound 633],–,<=0.1 μM,<=0.1 μM,–,0.4,0.8,0.8,<=0.1 μM,0.8,0.8,0.2,–,0.2,–
CC(C)C(NC(=O)c1ccc(C#Cc2ccc(CNCc3ccccn3)cc2)cc1)C(=O)NO (stereo not drawn) [Compound 289],–,<=0.1 μM,–,–,0.8,0.4,1.6,<=0.1 μM,0.8,0.8,0.4,0.2,0.4,–
CSCCNCc1ccc(C#Cc2ccc(C(=O)NC(C(=O)NO)C(C)(C)N)cc2)s1 (racemic) [Compound 635],–,<=0.1 μM,<=0.1 μM,<=0.1 μM,0.4,1.6,1.6,<=0.1 μM,0.8,0.8,0.4,–,–,–
CC(C)C(NC(=O)c1ccc(C#Cc2ccc(CNCc3cccs3)cc2)cc1)C(=O)NO (stereo not drawn) [Compound 291],–,<=0.1 μM,<=0.1 μM,<=0.1 μM,0.4,0.2,0.8,<=0.1 μM,0.4,0.2,0.2,–,–,–
CC(C)(N)C(NC(=O)c1ccc(C#Cc2ccc(CNCC(F)(F)F)s2)cc1)C(=O)NO (racemic) [Compound 648],–,<=0.1 μM,<=0.1 μM,–,0.4,0.8,0.8,<=0.1 μM,1.6,0.4,0.4,–,0.2,–
CC(C)(N)C(NC(=O)c1ccc(C#Cc2ccc(CNCc3ccccc3)cc2)cc1)C(=O)NO (racemic) [Compound 321],<=0.1 μM,–,–,–,0.8,1.6,1.6,<=0.1 μM,1.6,0.8,–,0.4,0.2,0.4
C[C@@H](O)[C@H](NC(=O)c1ccc(C#Cc2ccc(CNCC#N)cc2)cc1)C(=O)NO [C. 360],<=0.1 μM,<=0.1 μM,–,<=0.1 μM,0.4,0.4,0.8,<=0.1 μM,0.8,0.4,–,0.2,–,–
C[C@@H](O)[C@H](NC(=O)c1ccc(C#Cc2ccc(CN3CCOCC3)s2)cc1)C(=O)NO [C. 192],–,<=0.1 μM,–,<=0.1 μM,0.8,0.8,1.6,<=0.1 μM,0.8,0.8,0.2,0.2,–,–
C[C@@H](O)[C@H](NC(=O)c1ccc(C#Cc2ccc(CN(C)Cc3ccccc3)s2)cc1)C(=O)NO [Compound 196],<=0.1 μM,<=0.1 μM,<=0.1 μM,<=0.1 μM,0.8,0.4,1.6,<=0.1 μM,0.8,0.8,–,–,–,–
CC(C)([C@H](NC(=O)c1ccc(C#Cc2ccc(CNCC#N)cc2)cc1)C(=O)NO)S(C)(=O)=O [Compound 612],<=0.1 μM,<=0.1 μM,<=0.1 μM,<=0.1 μM,0.4,0.8,1.6,<=0.1 μM,0.8,0.8,–,–,–,–
CC(C)(N)C(NC(=O)c1ccc(C#Cc2ccc(CNCC(F)(F)F)cc2)cc1)C(=O)NO (racemic) [Compound 623],–,<=0.1 μM,<=0.1 μM,<=0.1 μM,0.4,0.8,1.6,<=0.1 μM,0.8,0.8,0.2,–,–,–
C=CCNCc1ccc(C#Cc2ccc(C(=O)NC(C(=O)NO)C(C)(C)S(C)(=O)=O)cc2)cc1 (stereo not drawn) [C. 602],<=0.1 μM,<=0.1 μM,<=0.1 μM,<=0.1 μM,0.8,1.6,1.6,<=0.1 μM,0.8,0.8,–,–,–,–
Cc1ccc(CNCc2ccc(C#Cc3ccc(C(=O)NC(C(=O)NO)C(C)(C)O)cc3)cc2)cc1 (stereo not drawn) [Compound 579],–,<=0.1 μM,<=0.1 μM,<=0.1 μM,0.4,0.8,1.6,<=0.1 μM,0.8,0.4,0.2,–,–,–

# Reference: patent publication US20230000813A1, “COMPOUND FOR THE TREATMENT OF BOVINE OR SWINE RESPIRATORY DISEASE” (Intervet Inc., priority 2016, published 2023)
